This is an account of results in patent publication US5882671A, “Anxiolytic agents” (Eli Lilly and Company, priority 1997, dated 1999).

The subject of data set [1] is fear potentiated startle response. Nature of the data set: fear potentiated startle model of anxiety. The conditions noted are these: statement in words. Type of data set: in vivo, Male Long Evans rats. The source says: In the fear potentiated startle model, animals are exposed to a neutral stimulus such as light (conditioned stimulus) with an aversive stimulus such as a shock (unconditioned stimulus). Following conditioning, when the animals are presented with a loud acoustic stimulus, larger startle responses are elicited when the startle stimulus is preceded by light. The difference in amplitude between the startle response when conditioned animals are exposed to the aversive stimulus paired with a neutral stimulus and the startle response when the conditioned animal is exposed only to the aversive stimulus is known as fear potentiated startle. The amplitude of the startle response when the animal is exposed only to the aversive stimulus is known as the baseline startle. Test compounds which are effective in this model decrease the fear potentiated startle response. It is emphasized that what is being determined experimentally is the difference between the startle response with paired stimuli and the baseline startle; test compounds which are anxiolytics may increase, decrease or leave unchanged the baseline startle response. (Davis, TiPS, January 1992 [Vol. 13], 35-41).
(§1) Male Long Evans rats (180-400 g) or male NIH Swiss mice (18-35 g) were obtained from Harlan Sprague-Dawley, Cumberland, Ind., U.S.A. and acclimated at least 3 days before testing. Animals were housed at 23°±2° C. (relative humidity 30% to 70%) and given Purina Certified Rodent Chow and water ad libitum. The photoperiod was 12 hours of light and 12 hours of dark, with dark onset at approximately 1800 hours.
(§2) Test compounds were dissolved in a vehicle of purified water and neutralized with 5N NaOH to a pH of 7-8 when applicable. […] Control animals received the respective vehicle.
SL-LAB (San Diego Instruments, San Diego, Calif.) chambers were used for conditioning sessions and for the production and recording of startle responses. A classical conditioning procedure was used to produce potentiation of startle responses. Briefly, on the first 2 days, rats were placed into dark startle chambers in which shock grids were installed. Following a 5-minute acclimation period, each rat received a 1 mA electric shock (500 ms) preceded by a 5 second presentation of light (15 watt) which remained on for the duration of the shock. Ten presentations of the light and shock were given in each conditioning session, […] A block of 10 consecutive presentations of acoustic startle stimuli (110 dB, non-light-paired) were presented at the beginning of the session in order to minimize the influences of the initial rapid phase of habituation to the stimulus. […]

The subject of data set [2] is negatively coupled cAMP-linked metabotropic glutamate receptors. Nature of the data set: selectivity of agonism at metabotropic glutamate receptors. The source says:
As described previously herein, it is preferred to use an agonist which acts selectively at negatively coupled cAMP-linked metabotropic glutamate receptors (relative to other glutamate receptors) in the methods according to the invention. Such an agonist may be a single compound, for example one of the four compounds named hereinabove, or two or more compounds which, in combination function as an agonist which acts selectively at negatively coupled cAMP-linked metabotropic glutamate receptors.

The test system of data set [3] is natural aversion to height and open spaces. Nature of the data set: automated elevated plus maze model of anxiety. It counts as in vivo, male NIH Swiss mice. The method, then: The elevated plus maze model is based upon the natural aversion of rodents to height and open spaces.
as §1, §2
Construction of the elevated plus-maze was based on a design validated for mice by Lister (1987). The entire maze was made of clear Plexiglas. The maze was comprised of two open arms (30×5×0.25 cm) and two enclosed arms (30×5×15 cm). The floor of each maze arm was corrugated to provide texture. The arms extended from a central platform and angled at 90 degrees from each other. The maze was elevated to a height of 45 cm above the floor and illuminated by red light. Individual infrared photocells were mounted along each arm of the maze to monitor closed, open, or nosepoke activity. Mice were individually placed on the central platform of the maze and the number of closed arm, open arm, and nosepoke (poking head only into open arm from closed arm of maze) counts were recorded and used as a measure of arm entries and time spent on various sections of the maze over a five-minute test period.

Data set [4] concerns negatively coupled cAMP-linked metabotropic glutamate receptors. As to conditions: Schoepp and Johnson, Neuropharmacology Vol. 32; cited from earlier work.
Data set [5] has as its system fear potentiated startle response. The conditions noted are these: reference anxiolytics, presentation of light, cited from earlier work.
For data set [6], the system named is natural aversion to height and open spaces. The conditions noted are these: reference anxiolytics, cited from earlier work.
A further data set has as its system anxiety disorders. The conditions noted are these: in vivo; cited from earlier work.

“Also recorded” adds a separate entry of the source. Where a name gives a salt, the structure may show the parent alone. Read-outs that look alike come from different tables or passages of the source.

Regarding `N[C@]1(C(=O)O)CO[C@@H]2[C@@H](C(=O)O)[C@@H]21` (relative stereo) [1SR,4SR,5RS,6SR-4-amino-2-oxabicyclo[3.1.0]hexane-4,6-dicarboxylic acid], the “efficacy in fear potentiated startle model of anxiety” value in data set [1] is on record as “effective”. Moreover, the “selectivity as agonist at negatively coupled cAMP-linked metabotropic glutamate receptors” value (“selectivity as agonist” for short) in data set [2] is reported as “act selectively as agonists”.
Take `N[C@@]1(C(=O)O)CS[C@@H]2[C@H](C(=O)O)[C@@H]21` (relative stereo) [1SR,4SR,5RS,6SR-4-amino-2-thiabicyclo[3.1.0]hexane-4,6-dicarboxylic acid]: the “efficacy in fear potentiated startle model of anxiety” value in data set [1] was “effective”. In addition, the “selectivity as agonist” value in data set [2] is given as “act selectively as agonists”.
As to `NC1(C(=O)O)CCC2C(C(=O)O)C21` (single isomer, unassigned; (+)) [(+)-2-Aminobicyclo[3.1.0]hexane-2,6-dicarboxylic Acid], the “efficacy in fear potentiated startle model of anxiety” value in data set [1] is listed as “effective”. In addition, in data set [3] (oral, 3 mg/kg, mice, five-minute test period), the Nosepoke counts entry is “significant increase”. In addition, the open arm activity result in data set [3] (oral, 1, 3 and 10 mg/kg, mice, five-minute test period) is given as “significant increases”. The “Closed arm activity counts” value in data set [3] (oral, any dose, mice, five-minute test period) was “not significantly altered”. Further, in data set [3] (statement in words), the “efficacy in elevated plus maze model of anxiety” value is given as “effective”. For the same compound, the “selectivity as agonist” value in data set [2] is “acts selectively as an agonist”.
Take `N[C@@]1(C(=O)O)CO[C@H]2[C@H](C(=O)O)[C@H]21` [1R,4R,5S,6R-4-amino-2-oxabicyclo[3.1.0]hexane-4,6-dicarboxylic acid]: in data set [1], the “efficacy in fear potentiated startle model of anxiety” value is listed as “effective”. Moreover, the “selectivity as agonist” value in data set [2] is listed as “act selectively as agonists”.
Take `N[C@@]1(C(=O)O)CC[C@@H](C(=O)O)C1` [1S,3R-1-aminocyclopentane-1,3-dicarboxylic acid]: in data set [4], the “action at PI-linked metabotropic glutamate receptors” value is reported as “also acts at PI-linked metabotropic glutamate receptors” and the “selectivity at negatively coupled cAMP-linked metabotropic glutamate receptors” value is listed as “act non-selectively”.
In the case of `O=C1CC2(CCCC2)CC(=O)N1CCCCN1CCN(c2ncccn2)CC1` [Buspirone hydrochloride, buspirone hydrochloride], in data set [5] (hydrochloride), the “reduction of fear (increased startle response) in the fear potentiated startle model” value is given as “effective at reducing the fear”. Moreover, the “reduction of fear of open spaces in the elevated plus maze model” value in data set [6] (hydrochloride) is listed as “effective; also recorded: reducing the fear of open spaces”. In addition, the dependence-inducing side effects result with anxiety disorders was “lacks the dependence-inducing side effects”.
For `CN1C(=O)CN=C(c2ccccc2)c2cc(Cl)ccc21` [Diazepam], the “reduction of fear (increased startle response) in the fear potentiated startle model” value in data set [5] is listed as “effective at reducing the fear”. The “reduction of fear of open spaces in the elevated plus maze model” value in data set [6] is on record as “reducing the fear of open spaces”.
